Data from patent US20240376097A1, “BCL-2 Inhibitor” (BeiGene Ltd., priority 2020, published 2024).

Columns and labels:
[1] = tested on: BCL-2 G101V knock-in cell line H96 (derive from RS4;11); assay: Bcl 2-G101V Knock-In RS4;11 Cell Proliferation Assay; format: cell-based; settings: Homo sapiens, RS4;11 Bcl-2 G101V knock-in clone H96, 48 hrs, CellTiter-GLO, read-out: Cellular proliferation assay (IC50, nM) RS4
Summary of the method: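 H96, a CRISPR-generated RS4;11 clone carrying BCL2-G101V knock-in (WES/RNA-seq validated), seeded 50,000 per well and exposed 48 h at 37 °C to 10-point dilutions topping at 1 or 10 μM. Viability by CellTiter-Glo luminescence; mean IC50.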

[2] = tested on: RS4;11 (BCL-2 dependent acute lymphoblastic leukemia cell line); assay: RS4;11 Cell Proliferation Assay; format: cell-based; settings: Homo sapiens, RS4-11, RS4;11 cells, read-out: Cellular proliferation assay (IC50, nM) RS4
Summary of the method: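 RS4;11 cells, 50,000 per well in RPMI-1640 with 10% FBS, treated 48 h at 37 °C with a 10-point dilution series topping at 1 μM. Viability read by CellTiter-Glo ATP luminescence; mean IC50 reported.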

[3] = target: Recombinant human Bcl-2 protein (Homo sapiens (Human), UniProt P10415); assay: Bcl-2 TR-FRET Assay; format: binding; settings: Bcl-2 wild type, TR-FRET; read-out: Biochemical assay (IC50, nM) Bcl-2 WT
Summary of the method: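 0.05 nM recombinant Bcl-2 preincubated 0.5 h at room temperature with 10-point compound dilutions (top final 1, 0.1, 0.02 or 0.01 uM) in pH 7.5 phosphate buffer. FITC-Bak peptide (0.5 nM) and anti-6His Tb cryptate then added for 1 h. TR-FRET read; IC50 from four-parameter logistic fit.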

[4] = tested on: recombinant human Bcl-2-G101V protein; assay: Bcl-2-G101V TR-FRET Assay; format: binding; settings: ratio of biochemical IC50 Bcl-2 G101V / Bcl-2 WT
Summary of the method: (§1)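 IC50 values derive from four-parameter logistic fitting of percent inhibition data. That inhibition of ligand binding to Bcl-2-G101V is computed from the 490 nm/520 nm TR-FRET ratio under 337 nm excitation, over a rising compound concentration series.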

[5] = target: recombinant human Bcl-2-G101V protein (Homo sapiens (Human), UniProt P10415, G101V); assay: Bcl-2-G101V TR-FRET Assay; format: binding; settings: Bcl-2 G101V mutant, TR-FRET; read-out: Biochemical assay (IC50, nM) Bcl-2 G101V
Summary of the method: as §1

Compound	IC50 [1]	IC50 [2]	IC50 [3]	Ratio of Bcl-2 G101V/WT [4]	IC50 [5]
CC(C)c1ccccc1C1CN(CC2CCOc3ccccc32)CCN1C1CC2(CCN(c3ccc(C(=O)NS(=O)(=O)c4ccc(NC[C@H]5CC[C@](C)(O)CC5)c([N+](=O)[O-])c4)c(Oc4cnc5[nH]ccc5c4)c3)CC2)C1 (stereo partly drawn) [Example 57, 2-((1H-pyrrolo[2,3-b]pyridin-5-yl)oxy)-4-(2-(4-(chroman-4-ylmethyl)-2-(2-isopropylphenyl)piperazin-1-yl)-7-azaspiro[3.5]nonan-7-yl)-N-((4-((((1r,4r)-4-hydroxy-4-methylcyclohexyl)methyl)amino)-3-nitrophenyl)sulfonyl)benzamide]	8.9 nM	0.8 nM	0.44 nM	5.0	2.2 nM
COc1ccc(CN2CCN(C3CC4(CCN(c5ccc(C(=O)NS(=O)(=O)c6ccc(NC[C@H]7CC[C@](C)(O)CC7)c([N+](=O)[O-])c6)c(Oc6cnc7[nH]ccc7c6)c5)CC4)C3)C(c3ccccc3C(C)C)C2)cc1OC(F)(F)F (stereo partly drawn) [Example 163, 2-((1H-pyrrolo[2,3-b]pyridin-5-yl)oxy)-N-((4-((((1r,4r)-4-hydroxy-4-methylcyclohexyl)methyl)amino)-3-nitrophenyl)sulfonyl)-4-(2-(2-(2-isopropylphenyl)-4-(4-methoxy-3-(trifluoromethoxy)benzyl)piperazin-1-yl)-7-azaspiro[3.5]nonan-7-yl)benzamide]	9.2 nM	1.08 nM	1.3 nM	4.3	5.5 nM
CC(C)c1ccccc1[C@@H]1CN(Cc2cccc3c2OCCO3)CCN1C1CC2(C1)CN(c1ccc(C(=O)NS(=O)(=O)c3ccc(NC[C@H]4CC[C@](C)(O)CC4)c([N+](=O)[O-])c3)c(Oc3cnc4[nH]ccc4c3)c1)C2 [Example 149a, 2-((1H-pyrrolo[2,3-b]pyridin-5-yl)oxy)-4-(6-((R)-4-((2,3-dihydrobenzo[b][1,4]dioxin-5-yl)methyl)-2-(2-isopropylphenyl)piperazin-1-yl)-2-azaspiro[3.3]heptan-2-yl)-N-((4-((((1r,4r)-4-hydroxy-4-methylcyclohexyl)methyl)amino)-3-nitrophenyl)sulfonyl)benzamide]	0.67 nM	0.17 nM	0.11 nM	2.6	0.27 nM
CC(C)c1ccccc1C1CN(Cc2ccc3c(c2)CCCC3)CCN1C1CC2(CCN(c3ccc(C(=O)NS(=O)(=O)c4ccc(NC[C@H]5CC[C@](C)(O)CC5)c([N+](=O)[O-])c4)c(Oc4cnc5[nH]ccc5c4)c3)CC2)C1 (stereo partly drawn) [Example 54, 2-((1H-pyrrolo[2,3-b]pyridin-5-yl)oxy)-N-((4-((((1r,4r)-4-hydroxy-4-methylcyclohexyl)methyl)amino)-3-nitrophenyl)sulfonyl)-4-(2-(2-(2-isopropylphenyl)-4-((5,6,7,8-tetrahydronaphthalen-2-yl)methyl)piperazin-1-yl)-7-azaspiro[3.5]nonan-7-yl)benzamide]	11.7 nM	0.79 nM	0.76 nM	6.2	4.7 nM
CC(C)c1ccccc1[C@@H]1CN(Cc2ccc3c(c2)OCC3(C)C)CCN1C1CC2(CCN(c3ccc(C(=O)NS(=O)(=O)c4ccc(NC[C@H]5CC[C@](C)(O)CC5)c([N+](=O)[O-])c4)c(Oc4cnc5[nH]cc(F)c5c4)c3)CC2)C1 [Example 308, 4-(2-((R)-4-((3,3-dimethyl-2,3-dihydrobenzofuran-6-yl)methyl)-2-(2-isopropylphenyl)piperazin-1-yl)-7-azaspiro[3.5]nonan-7-yl)-2-((3-fluoro-1H-pyrrolo[2,3-b]pyridin-5-yl)oxy)-N-((4-((((1r,4r)-4-hydroxy-4-methylcyclohexyl)methyl)amino)-3-nitrophenyl)sulfonyl)benzamide]	3.95 nM	0.58 nM	0.67 nM	4.6	3.11 nM
CC(C)c1ccccc1C1CN(Cc2ccc(OC3CC3)cc2)CCN1C1CC2(CCN(c3ccc(C(=O)NS(=O)(=O)c4ccc(NC[C@H]5CC[C@](C)(O)CC5)c([N+](=O)[O-])c4)c(Oc4cnc5[nH]ccc5c4)c3)CC2)C1 (stereo partly drawn) [Example 172, 2-((1H-pyrrolo[2,3-b]pyridin-5-yl)oxy)-4-(2-(4-(4-cyclopropoxybenzyl)-2-(2-isopropylphenyl)piperazin-1-yl)-7-azaspiro[3.5]nonan-7-yl)-N-((4-((((1r,4r)-4-hydroxy-4-methylcyclohexyl)methyl)amino)-3-nitrophenyl)sulfonyl)benzamide]	1.64 nM	0.43 nM	0.35 nM	5.5	1.9 nM
COc1cnc(CN2CCN(C3CC4(CCN(c5ccc(C(=O)NS(=O)(=O)c6ccc(NC[C@H]7CC[C@](C)(O)CC7)c([N+](=O)[O-])c6)c(Oc6cnc7[nH]ccc7c6)c5)CC4)C3)C(c3ccccc3C(C)C)C2)cn1 (stereo partly drawn) [Example 154, 2-((1H-pyrrolo[2,3-b]pyridin-5-yl)oxy)-N-((4-((((1r,4r)-4-hydroxy-4-methylcyclohexyl)methyl)amino)-3-nitrophenyl)sulfonyl)-4-(2-(2-(2-isopropylphenyl)-4-((5-methoxypyrazin-2-yl)methyl)piperazin-1-yl)-7-azaspiro[3.5]nonan-7-yl)benzamide]	2.22 nM	0.38 nM	0.05 nM	6	0.3 nM
COc1cc(CN2CCN(C3CC4(CCN(c5ccc(C(=O)NS(=O)(=O)c6ccc(NC[C@H]7CC[C@](C)(O)CC7)c([N+](=O)[O-])c6)c(Oc6cnc7[nH]ccc7c6)c5)CC4)C3)C(c3ccccc3C(C)C)C2)cc(F)c1OC (stereo partly drawn) [Example 152, 2-((1H-pyrrolo[2,3-b]pyridin-5-yl)oxy)-4-(2-(4-(3-fluoro-4,5-dimethoxybenzyl)-2-(2-isopropylphenyl)piperazin-1-yl)-7-azaspiro[3.5]nonan-7-yl)-N-((4-((((1r,4r)-4-hydroxy-4-methylcyclohexyl)methyl)amino)-3-nitrophenyl)sulfonyl)benzamide]	1.31 nM	0.35 nM	0.25 nM	3.5	0.89 nM
CC(C)c1ccccc1[C@@H]1CN(Cc2ccnc3c2OC(C)(C)CO3)CCN1C1CC2(C1)CN(c1ccc(C(=O)NS(=O)(=O)c3ccc(NC[C@H]4CC[C@](C)(O)CC4)c([N+](=O)[O-])c3)c(Oc3cnc4[nH]ccc4c3)c1)C2 [Example 314, 2-((1H-pyrrolo[2,3-b]pyridin-5-yl)oxy)-4-(6-((R)-4-((2,2-dimethyl-2,3-dihydro-[1,4]dioxino[2,3-b]pyridin-8-yl)methyl)-2-(2-isopropylphenyl)piperazin-1-yl)-2-azaspiro[3.3]heptan-2-yl)-N-((4-((((1r,4r)-4-hydroxy-4-methylcyclohexyl)methyl)amino)-3-nitrophenyl)sulfonyl)benzamide]	0.61 nM	0.17 nM	0.032 nM	4.2	0.13 nM
